The text below walks through data of patent US20110213021A1, “COMPOSITIONS AND METHODS FOR TREATING NOS-ASSOCIATED DISEASES” (Indigene Pharmaceuticals, Inc., priority 2008, published 2011).

One assay concerns rat liver microsomes. Nature of the assay: lipid peroxidation: ascorbic acid-induced production of malonaldehyde in liver microsomes. In kind it is biochemical. As to conditions: 0.1 mM ascorbic acid, 20 min at 37° C. As to the method:
Furthermore, the effect on lipid peroxidation quantified by the measurement of ascorbic acid-induced production of malonaldehyde in rat liver microsomes. Specifically, homogenates of liver microsomes (150 μg) are pre-incubated for 5 min at 37° C. with the test salt (as a 10-fold concentrated solution in H2O), reference compound or water (control) in a buffer containing 300 mM NaCl, 0.1 mM FeCl3 and 8 mM NaH2PO4/Na2HPO4 (pH 7.4). Thereafter, the reaction is initiated by the addition of 0.1 mM ascorbic acid and the mixture is incubated for 20 min at 37° C. For basal control measurements, ascorbic acid is omitted from the incubation medium. These measurements are also used to detect any compound interference with the photometric detection at the selected wavelength. Following incubation, the reaction is stopped by the addition of 5 mM EDTA/NaOH. […] The amount of lipid peroxides present in the supernatant is quantified by measuring the absorbance at λ=532 nm using a spectrophotometer. This assay may be performed using the standard inhibitory reference compound N-propyl gallate, which may be tested in each experiment at several concentrations to obtain an inhibition curve from which its IC50 value is calculated. […]
(Liver microsomes are a subcellular fraction often used to study metabolism.)

The next assay deals with human HL-60 cells. Nature of the assay: superoxide O2- secretion from PMA-stimulated HL-60 cells (cytochrome C reduction). In kind it is cell-based. As to conditions: 0.25 h, 30 nM PMA-stimulated HL-60 cells, 15 min at 37° C. The procedure:
In addition, the effect on superoxide O2 secretion was measured. This assay quantifies the secretion of superoxide O2^− from phorbol 12-mysirate 13-acetate (PMA)-stimulated human HL-60 cells, by the measurement of cytochrome C reduction. The test salt (as a 10-fold concentrated solution in H2O), reference compound or water (control) are pre-incubated for 15 min at 37° C. with HL-60 cells (5×10^5 cells) suspended in a buffer containing 137 mM NaCl, 2.68 mM KCl, 0.9 mM CaCl2, 0.5 mM MgCl2, 8.1 mM Na2HPO4, 1.47 mM KH2PO4 (pH 7.4 ) and 19 μM cytochrome C. The absorbance is then measured at λ=550 nm using a spectrophotometer to detect any compound interference with the photometric detection at this wavelength. Thereafter, the reaction is initiated by the addition of 30 nM PMA and the mixture is incubated for 15 min at 37° C. in the dark. For basal control measurements, the incubation medium also contains 275 U/ml superoxyde dismutase (SOD) to catalyze the destruction of superoxide O2^−. […] The absorbance is then measured at λ=550 nm and the activity is determined by subtracting signal measured in the presence of SOD from that measured in its absence. This assay may be performed using the standard inhibitory reference compound, diphenyleneiodonium, which may be tested in each experiment at several concentrations to obtain an inhibition curve from which its IC50 value is calculated. […]

Another assay addresses T1, inducible NOS (Mus musculus, UniProt P29477).
T1 construct: using an enzyme isolated from LPS-+INFγ-treated mouse macrophages; endogenous in cells; host or cells: LPS + IFN-gamma-treated mouse macrophages (enzyme isolated from the cells)
Kind of assay: inducible NOS activity assay (formation of nitrite from arginine, Griess reagent). The class given is biochemical. The procedure: First, an inducible NOS activity assay was performed on the recrystallized salt of Example 2. This assay measures the formation of nitrite from arginine using an enzyme isolated from LPS-+INFγ-treated mouse macrophages. In this assay, the test salt (as a 10-fold concentrated solution in H2O), reference compound or water (control) are incubated for 180 min at 37° C. with the enzyme (0.5 U) in a buffer containing 40 mM Tris-HCl (pH 8.0), 0.5 mM NADPH, 4 μM FAD, 12 μM BH4, 3 mM DTT and 0.1 mM L-arginine. For basal control measurements, the enzyme is omitted from the incubation medium. Following incubation, Griess reagent containing 0.05% naphtylene diamine, 0.5% sulfanilamide and 2.5% orthophosphoric acid is added and the samples are incubated for 10 min at 22° C. The amount of nitrite produced is then quantified with a microplate reader (Spectrafluorplus, Tecan) by measuring the absorbance at λ=550 nm. The results are expressed as IC50 in M. This assay may be performed using the standard inhibitory reference compound, I400 W, which may be tested in each experiment at several concentrations to obtain an inhibition curve from which its IC50 value is calculated. Further information regarding this protocol may be found in Tayeh and Marletta (1989), Macrophage oxidation of L-arginine to nitric oxide, nitrite, and nitrate, J. Biol. Chem., 264: 19654.

Molecules are shown by their SMILES.

In the case of `CC(C)=NN=C(N)N`, the IC50 (usually the concentration needed to halve the response being measured) in the assay on rat liver microsomes amounted to 1800 µM; with human HL-60 cells, 310 µM; at inducible NOS (enzyme isolated from LPS-+INFγ-treated mouse macrophages, 180 min at 37° C., 0.1 mM L-arginine), 37 µM. For the same compound, on inducible NOS (same inhibition curve as the IC50), the “nH, inducible NOS activity” value amounted to 0.9.
